Literature values in patent US20120207744A1, “REPROGRAMMING COMPOSITIONS AND METHODS OF USING THE SAME” (priority 2009, published 2012).
Where a name gives a salt, the structure may show the parent alone. Values belong to the molecule of their own block, whether it stands above or below them.

How the values were obtained:
ESCs = conditions: cyclic activation of Wnt/β-catenin signaling in ESCs
[1] = system: mouse embryonic fibroblasts; conditions: small-molecule combination BIX-01294 and BayK8644
human ESCs = conditions: both appear equally effective in facilitating clonal growth
ES-cell = conditions: repression of MEK/ERK, in culture
ROCK1/ROCK2 = conditions: inhibits by competing with ATP; Ishizaki et al. 2000
Oct-3/4-GFP = Oct-3/4-GFP as a reporter
[2] = system: primary human fibroblasts; conditions: Oct-3/4 and Sox-2, without c-Myc or Klf-4
Klf-4 promoter = conditions: transient transfection, 2622-bp mouse Klf-4 promoter

Molecule: O=C1Nc2cc(Br)ccc2/C1=C1/Nc2ccccc2/C1=N\O [6-bromoindirubin-3′-oxime]
ability of ESCs to reprogram somatic cells after fusion (ESCs): strikingly enhances

Molecule: COc1cc2nc(N3CCCN(C)CC3)nc(NC3CCN(Cc4ccccc4)CC3)c2cc1OC [BIX-01294]
reprogramming of Oct-3/4/Klf-4 transduced cells [1]: enables reprogramming

Molecule: COC(=O)C1=C(C)NC(C)=C([N+](=O)[O-])C1c1ccccc1C(F)(F)F (stereo not drawn) [BayK8644]
reprogramming of Oct-3/4/Klf-4 transduced cells [1]: enables reprogramming

Molecule: Cc1cncc2cccc(S(=O)(=O)N3CCCNC[C@@H]3C)c12.Cl.Cl [H-1152, (S)-(+)-2-methyl-1-[(4-methyl-5-isoquinolinyl)sulfonyl]homopiperazine dihydrochloride]
working concentration for facilitating clonal growth, relative to HA-100 (human ESCs): ten times lower working concentrations than HA-100

Molecule: COc1cccc(-c2cc(=O)c3ccccc3o2)c1N [PD098059]
effect on differentiation and ES-cell self-renewal (ES-cell): inhibits differentiation and maintains ES-cell self-renewal in culture

Molecule: N#CC(=C(/N)Sc1ccccc1N)/C(C#N)=C(\N)Sc1ccccc1N [U0126]
effect on enterostatin-induced inhibition of KLF4 gene expression (GT1-7 cells; GT1-7 cells, ERK inhibitor): blocked

IC50 (ROCK1/ROCK2): 800 nM
Molecule: C[C@@H](N)[C@H]1CC[C@H](C(=O)Nc2ccncc2)CC1 [Y-27632, (+)-(R)-trans-4-(1-aminoethyl)-N-(4-pyridyl)cyclohexanecarboxamide dihydrochloride]

Molecule: CCCC(CCC)C(=O)O [valproic acid]
improvement of reprogramming efficiency (Oct-3/4-GFP): more than 100 fold
reprogramming with only two factors [2]: enables reprogramming of primary human fibroblasts

Molecule: enterostatin
effect on KLF4 gene expression (GT1-7 cells; GT1-7 cells treated with the peptide): inhibited KLF4 gene expression

B1: Wnt3a: Wnt protein activating Wnt/β-catenin signaling (protein, UniProt P56704 19-352, looked up)
Protein Wnt-3a: SYPIWWSLAVGPQYSSLGSQPILCASIPGLVPKQLRFCRNYVEIMPSVAEGIKIGIQECQHQFRGRRWNCTTVHDSLAIFGPVLDKATRESAFVHAIASAGVAFAVTRSCAEGTAAICGCSSRHQGSPGKGWKWGGCSEDIEFGGMVSREFADARENRPDARSAMNRHNNEAGRQAIASHMHLKCKCHGLSGSCEVKTCWWSQPDFRAIGDFLKDKYDSASEMVVEKHRESRGWVETLRPRYTYFKVPTERDLVYYEASPNFCEPNPETGSFGTRDRTCNVSSHGIDGCDLLCCGRGHNARAERRREKCRCVFHWCCYVSCQECTRVYDVHTCK
ability of ESCs to reprogram somatic cells after fusion (ESCs): strikingly enhances

B2: IFN-gamma: IFN-gamma, cytokine inducing Klf-4 expression via phosphorylated STAT1 (protein, UniProt P01579 24-161, looked up)
Interferon gamma: QDPYVKEAENLKKYFNAGHSDVADNGTLFLGILKNWKEESDRKIMQSQIVSFYFKLFKNFKDDQSIQKSVETIKEDMNVKFFNSNKKKRDDFEKLTNYSVTDLNVQRKAIHELIQVMAELSPAAKTGKRKRSQMLFRG
increase of Klf-4 promoter activity (Klf-4 promoter): 3.5 fold
